According to patent publication US11840527B2, “Non-fused thiophene derivatives and their uses” (ENYO PHARMA, priority 2018, dated 2023):

Columns and labels:
[1] = target: T1, CISD2 Gene Product (NAF-1) (Homo sapiens, UniProt Q8N5K1); assay: Stability of Fe-S cluster binding of purified NEET protein (absorbance 458 nm); format: biochemical; conditions: for Residual cluster bound at end of experiment (Percentage Absorbance 458 nm at time zero): at 500 minutes, vehicle control 3%; for Residual cluster bound at end of experiment (Percentage Absorbance 458 nm at time zero) / Time (in minutes) to achieve 50% loss of bound cluster (Absorbance 458 nm): 60 μM compound; for Time (in minutes) to achieve 50% loss of bound cluster (Absorbance 458 nm): pH 6, 37° C., 20 μM protein, run time 500 minutes, vehicle control 310; for Stabiliser of Fe—S cluster binding (time to 50% loss increased by more than 25% vs control): at the concentrations tested
T1 sequence (Q8N5K1 57-135 limits assumed): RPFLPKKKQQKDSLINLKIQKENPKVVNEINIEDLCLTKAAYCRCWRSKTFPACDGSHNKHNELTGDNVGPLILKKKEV
Protocol: (§1) The modulator effect on the NEET proteins encoded by human CISD1, CISD2, and CISD3 genes by the compounds of the invention has been tested and is reported below. Particularly, the biochemical function of the NEET proteins is measured by the stability of Fe—S cluster binding of the purified NEET proteins.
(§2) The Fe—S cluster binding capacity of NEET proteins is known to be coordinated by four amino-acids in a stretch of 16 (three Cysteine and one Histidine). As the lability of the Fe—S cluster of NEET proteins is sensitive to the environment, cluster stability measurements are one of the measures of interactions of NEET proteins with small molecules and compounds. NEET protein/2Fe-2S cluster stability can be assessed by monitoring the decay in absorbance of its characteristic 458-nm peak (characteristic of the oxidized 2Fe-2S cluster) over time. Each NEET protein (mitoNEET, NAF-1 and Miner 2) was tested for its Fe—S binding in the absence or presence of a compound according to the invention (see table 3 below). The rate of cluster release (time in minutes to achieve 50% loss of bound Fe—S cluster) was compared for each NEET protein in the presence of one of the compounds of the invention (in a 1:3 protein:compound molar ratio) relative to each protein alone.
(§3) At pH 6, all the three NEET proteins (mitoNEET, NAF-1 and Miner 2) have a characteristic rate of loss of the bound Fe—S cluster that can be measured by the decrease of absorbance at wavelength 458 nm over time, using a spectrophotometer. Thus, Bis-Tris buffer (100 mM Bis-Tris pH6, 100 mM Nacl) was used at pH 6 to dilute either DMSO (Blank sample: Bis-Tris Buffer pH 6, 66 μM DMSO), DMSO and one of the three NEET proteins (Control sample: Bis-Tris Buffer pH 6, 66 μM DMSO, 20 μM purified NEET protein) or DMSO, one of the three NEET proteins and a compound of the invention (Test sample: Bis-Tris Buffer pH 6, 66 μM DMSO, 20 μM purified NEET protein, 60 μM compound of the invention).
(§4) A reaction mix containing DMSO diluted in the Bis-Tris Buffer with or without a compound of the invention was prepared. The purified NEET protein was the last component added to the reaction mix which was then aliquoted into 4 replicates in 96 wells plates. The absorbance at wavelength 458 nm was taken at 5 minutes intervals at 37° C. with a spectrofluorimeter. The assay run time for CISD2 gene product (NAF-1) was 500 minutes and 180 minutes for both the CISD 1 gene product (mitoNEET) and the CISD3 gene product (Miner 2).
(§5) In addition to time monitoring, residual bound Fe—S cluster to NEET protein was measured at the final point of the spectrometry assay for each Test sample and compared to the Control sample data (in parenthesis table 3). This residual binding is measured by the differential percentage between the absorbance 458 nm at time zero and the absorbance 458 nm at the end of the experiment (i.e. respectively 500 or 180 minutes as described hereabove), showing the percentage of NEET protein still able to bind Fe—S cluster.
(§6) Analysis of the absorbance enables the time for which 50% loss of bound Fe—S cluster is reached (i.e. a 50% absorbance decrease at 458 nm) for each Test sample and each Control sample (in parenthesis table 3) to be determined. The data are then compared to determine whether the compound of the invention stabilizes or destabilizes the NEET protein/Fe—S cluster binding.
(§7) Stabilisers of Fe—S cluster binding by the NEET proteins slow the release of bound Fe—S (i.e. increase the time needed to reach 50% Fe—S cluster bound loss by more than 25% for the Test sample compared to the Control sample). As illustrated by table 3, at the concentrations tested, stabilisers of CISD1 Gene Product (mitoNEET) are the compounds #9, #18, #26, #2, #1, and #42. Stabilisers of CISD2 Gene Product (NAF-1) are the compounds #2, #1, and #40. Stabilisers of CISD3 Gene Product (Miner2) are the compounds #9, #18, #26, #2, #1, and #42.

[2] = target: T2, CISD1 Gene Product (mitoNEET) (Homo sapiens, UniProt Q9NZ45); assay: as above; format: biochemical; conditions: for Residual cluster bound at end of experiment (Percentage Absorbance 458 nm at time zero): at 180 minutes, vehicle control 16%; for Residual cluster bound at end of experiment (Percentage Absorbance 458 nm at time zero) / Time (in minutes) to achieve 50% loss of bound cluster (Absorbance 458 nm): 60 μM compound; for Stabiliser of Fe—S cluster binding (time to 50% loss increased by more than 25% vs control): at the concentrations tested; for Time (in minutes) to achieve 50% loss of bound cluster (Absorbance 458 nm): pH 6, 37° C., 20 μM protein, run time 180 minutes, vehicle control 80
T2 sequence (Q9NZ45 33-108 limits assumed): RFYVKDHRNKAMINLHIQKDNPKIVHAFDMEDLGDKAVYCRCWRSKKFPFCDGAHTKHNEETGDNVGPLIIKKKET
Protocol: as §1, §2, §3, §4, §5, §6, §7

[3] = target: T3, CISD3 Gene Product (Miner2) (Homo sapiens, UniProt P0C7P0); assay: as above; format: biochemical; conditions: for Residual cluster bound at end of experiment (Percentage Absorbance 458 nm at time zero): CISD3 gene product, at 180 minutes, vehicle control (DMSO) 11%; for Residual cluster bound at end of experiment (Percentage Absorbance 458 nm at time zero) / Time (in minutes) to achieve 50% loss of bound cluster (Absorbance 458 nm): 60 μM compound; for Stabiliser of Fe—S cluster binding (time to 50% loss increased by more than 25% vs control) / Time (in minutes) to achieve 50% loss of bound cluster (Absorbance 458 nm): Miner2; for Stabiliser of Fe—S cluster binding (time to 50% loss increased by more than 25% vs control): at the concentrations tested; for Time (in minutes) to achieve 50% loss of bound cluster (Absorbance 458 nm): pH 6, 37° C., 20 μM protein, run time 180 minutes, vehicle control 60
T3 sequence (P0C7P0 15-127): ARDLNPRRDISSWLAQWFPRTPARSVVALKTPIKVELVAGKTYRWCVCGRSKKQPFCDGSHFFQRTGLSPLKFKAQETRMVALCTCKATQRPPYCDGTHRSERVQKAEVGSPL
Protocol: as §1, §2, §3, §4, §5, §6, §7

[4] = tested on: H1N1 (influenza A/New Caledonia/20/99); assay: Antiviral effect on A549 cells infected with H1N1; format: cell-based, H1N1 A/New Caledonia/20/99 virus; conditions: Influenza A virus, MOI 0.1, 48 h post-infection, MUNANA neuraminidase readout
Protocol: The antiviral effect of the compounds of the invention have been tested on A549 cell lines infected with H1N1 (influenza A/New Caledonia/20/99).
Human A549 cells (80,000 cells/well in a 96 well plate) were treated with a range of concentration of test compounds and immediately infected by H1N1 A/New Caledonia/20/99 virus (clinical isolate) at MOI of 0.1 in DMEM/1% Penicillin/streptomycin supplemented with […] TPCK trypsin (Sigma) and incubated at 37° C. in 5% CO2. 48 h post-infection, supernatants (25 μl) were collected and transferred into a 96-well black flat-bottom plate, mixed with 25 μl PBS with Ca++/Mg++ (Thermo Fisher) and 50 μl of 2′-(4-Methylumbelliferyl)-ax-D-N-acetylneuraminic acid sodium salt hydrate stock-solution (20 μM, MUNANA, Sigma). Plates were incubated 1h at 37° C. and reaction is stopped by adding 100 μl of Stop Solution (glycine 0.1 M pH10.7/25% ethanol). The amount of fluorescent product released by MUNANA hydrolysis (4-MU) was measured in a Tecan spectrophotometer with excitation and emission wavelengths of 365 and 450 nm respectively.

| SMILES | Residual cluster bound at end of experiment (Percentage Absorbance 458 nm at time zero) [1] | Time (in minutes) to achieve 50% loss of bound cluster (Absorbance 458 nm) [1] | Residual cluster bound at end of experiment (Percentage Absorbance 458 nm at time zero) [2] | Stabiliser of Fe—S cluster binding (time to 50% loss increased by more than 25% vs control) [2] | Time (in minutes) to achieve 50% loss of bound cluster (Absorbance 458 nm) [2] | Residual cluster bound at end of experiment (Percentage Absorbance 458 nm at time zero) [3] | Stabiliser of Fe—S cluster binding (time to 50% loss increased by more than 25% vs control) [3] | Time (in minutes) to achieve 50% loss of bound cluster (Absorbance 458 nm) [3] | IC50 [4] [nM] | Stabiliser of Fe—S cluster binding (time to 50% loss increased by more than 25% vs control) [1] |
| --- | --- | --- | --- | --- | --- | --- | --- | --- | --- | --- |
| O=C(Nc1scc(C2CCCCC2)c1C(=O)O)c1ccccc1 [Compound #26, 2-Benzamido-4-cyclohexyl-thiophene-3-carboxylic acid] | 18% (3%) | 355 (310) minutes | 36% (16%) | stabilisers | 105 (80) minutes | 52% (11%) | Stabilisers | during 180 minutes | 745 |  |
| O=C(Nc1scc(-c2ccc(Cl)cc2)c1C(=O)O)c1ccccc1 [Compound #1, 2-Benzamido-4-(4-chlorophenyl)thiophene-3-carboxylic acid] | 13% (3%) | 425 (310) minutes | 29% (16%) | stabilisers | 100 (80) minutes | 47% (11%) | Stabilisers | 85 (60) minutes | 298 | Stabilisers |
| Cc1c(-c2ccccc2)sc(NC(=O)c2ccccc2)c1C(=O)O [Compound #40, 2-Benzamido-4-methyl-5-phenyl-thiophene-3-carboxylic acid] | 9% (3%) | 390 (310) minutes | 6% (16%) |  | 95 (80) minutes | 24% (11%) |  | 70 (60) minutes | 2470 | Stabilisers |
| Cc1ccccc1C(=O)Nc1scc(-c2ccccc2)c1C(=O)O [Compound #42, 2-[(2-Methylbenzoyl)amino]-4-phenyl-thiophene-3-carboxylic acid] | 2% (3%) | 330 (310) minutes | 24% (16%) | stabilisers | 100 (80) minutes | 37% (11%) | Stabilisers | 75 (60) minutes | 5870 |  |
| Cc1ccccc1C(=O)Nc1sc(Cl)c(C2CCCCC2)c1C(=O)O [Compound #14, 5-Chloro-4-cyclohexyl-2-[(2-methylbenzoyl)amino]thiophene-3-carboxylic acid] |  |  |  |  |  |  |  |  | 500 |  |
| O=C(Nc1scc(-c2ccccc2Cl)c1C(=O)O)c1ccccc1 [Compound #44, 2-Benzamido-4-(2-chlorophenyl)thiophene-3-carboxylic acid] |  |  |  |  |  |  |  |  | 6650 |  |
| CC(C)(C)c1csc(NC(=O)c2ccc(NC3CCCOC3)cc2)c1C(=O)O (centres unmarked) [Compound #118, 4-tert-Butyl-2-[[4-(tetrahydropyran-3-ylamino)benzoyl]amino]thiophene-3-carboxylic acid] |  |  |  |  |  |  |  |  | 200 |  |
| O=C(Nc1scc(-c2ccc(C(F)(F)F)cc2)c1C(=O)O)c1ccccc1 [Compound #20, 2-Benzamido-4-[4-(trifluoromethyl)phenyl]thiophene-3-carboxylic acid] |  |  |  |  |  |  |  |  | 310 |  |
| O=C(Nc1scc(C2CC2)c1C(=O)O)c1ccc(NCC2CCOCC2)cc1 [Compound #90, 4-Cyclopropyl-2-[[4-(tetrahydropyran-4-ylmethylamino)benzoyl]amino]thiophene-3-carboxylic acid] |  |  |  |  |  |  |  |  | 240 |  |
| O=C(Nc1scc(C2COc3ccccc3C2)c1C(=O)O)c1ccccc1 (centres unmarked) [Compound #84, 2-Benzamido-4-chroman-3-yl-thiophene-3-carboxylic acid] |  |  |  |  |  |  |  |  | 287 |  |
| O=C(Nc1scc(C2CCc3ccccc3O2)c1C(=O)O)c1ccccc1 (centres unmarked) [Compound #85, 2-Benzamido-4-chroman-2-yl-thiophene-3-carboxylic acid] |  |  |  |  |  |  |  |  | 506 |  |
| COC1CN(c2ccc(C(=O)Nc3scc(C4CCC4)c3C(=O)O)cc2)C1 [Compound #97, 4-Cyclobutyl-2-[[4-(3-methoxyazetidin-1-yl)benzoyl]amino]thiophene-3-carboxylic acid] |  |  |  |  |  |  |  |  | 110 |  |
